Experimental findings from the supplement of paper PMC10307832 are described below.

What all share (test): relative viability (nuclei count vs DMSO), 5 days (fraction); higher = more cells survive
Compound in assay [1]: C1CC2=C(C1)C=C(C=C2)OC3=NC(=C4C(=N3)N(C=N4)CC5=CC=C(C=C5)C6=CC=CC=C6)N[C@@H](CC7=CC=CC=C7)CO [QS11] + CS(=O)(=O)CCNCc1ccc(-c2ccc3ncnc(Nc4ccc(OCc5cccc(F)c5)c(Cl)c4)c3c2)o1 [Lapatinib] (partner 2 µM)
Summed up:
(§1)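 A single step with final 0.05% Triton X-100, 1% formaldehyde and 1 ug/ml Hoechst fixed the cells and stained nuclei 5 days after treatment. Lung cancer cell lines in 1536-well plates had been treated by pin tool the day after seeding with one drug alone or a fixed anchor-drug dose plus five library-drug doses (not always all listed) in √10 steps, and nuclei were counted on 4× images. Relative viability is the ratio of nuclei in treated wells to nuclei in vehicle wells, taken as the median of duplicate plates.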

Compound in assay [2]: C1CC2=C(C1)C=C(C=C2)OC3=NC(=C4C(=N3)N(C=N4)CC5=CC=C(C=C5)C6=CC=CC=C6)N[C@@H](CC7=CC=CC=C7)CO [QS11] + COc1cc2c(Oc3ccc(NC(=O)C4(C(=O)Nc5ccc(F)cc5)CC4)cc3F)ccnc2cc1OCCCN1CCOCC1 [Foretinib] (partner 0.25 µM)
Summed up:
as §1

Compound in assay [3]: CC1=C(C=C(C=C1)NC(=O)C2=CC(=CC=C2)C(C)(C)C#N)NC3=CC4=C(C=C3)N=CN(C4=O)C [AZ628] + Nc1ncn([C@H]2C[C@H](O)[C@@H](CO)O2)c(=O)n1 [Decitabine] (partner 2 µM)
The gist of the method:
as §1

Compound in assay [4]: CC1=C(C=C(C=C1)NC(=O)C2=CC(=CC=C2)C(C)(C)C#N)NC3=CC4=C(C=C3)N=CN(C4=O)C [AZ628] + Cc1cc(Nc2cc(N3CCN(C)CC3)nc(Sc3ccc(NC(=O)C4CC4)cc3)n2)n[nH]1 [Tozasertib] (partner 0.1 µM)
Summed up:
as §1

As to COR-L 105, the relative viability was determined as 0.38 in assay [1] (first compound 0.08 µM); 0.363 in assay [1] (first compound 0.253 µM); 0.343 in assay [1] (first compound 0.8 µM); 0.412 in assay [1] (first compound 2.53 µM); 0.396 in assay [1] (first compound 8 µM); 1.08 in assay [2] (first compound 0.08 µM). Further, the relative viability in assay [2] (first compound 0.253 µM) turned out to be 1.25; in assay [2] (first compound 0.8 µM), 0.924; in assay [2] (first compound 2.53 µM), 0.991; in assay [2] (first compound 8 µM), 0.992; in assay [3] (first compound 0.08 µM) it was 0.74; in assay [3] (first compound 0.253 µM), 0.692. In addition, the relative viability in assay [3] (first compound 0.8 µM) turned out to be 0.668; in assay [3] (first compound 2.53 µM), 0.613; in assay [3] (first compound 8 µM) it was 0.559; in assay [4] (first compound 0.08 µM) it was 0.387; in assay [4] (first compound 0.253 µM), 0.374; in assay [4] (first compound 0.8 µM) it was 0.359. The relative viability in assay [4] (first compound 2.53 µM) was found to be 0.315; in assay [4] (first compound 8 µM), 0.376.
NCI-H1915: the relative viability in assay [1] (first compound 0.08 µM) is 1.04; in assay [1] (first compound 0.253 µM), 1.02; in assay [1] (first compound 2.53 µM) it was 1.02; in assay [1] (first compound 8 µM), 0.802; in assay [2] (first compound 0.08 µM), 1.17; in assay [2] (first compound 0.253 µM), 1.18. Further, the relative viability in assay [2] (first compound 2.53 µM) was 1.07; in assay [2] (first compound 8 µM), 1.01; in assay [3] (first compound 0.08 µM) it was 0.271; in assay [3] (first compound 0.253 µM), 0.259; in assay [3] (first compound 0.8 µM) it was 0.267; in assay [3] (first compound 2.53 µM), 0.254. In addition, the relative viability in assay [3] (first compound 8 µM) was 0.169; in assay [4] (first compound 0.08 µM), 0.429; in assay [4] (first compound 0.253 µM) it was 0.412; in assay [4] (first compound 0.8 µM) it was 0.377; in assay [4] (first compound 2.53 µM), 0.309; in assay [4] (first compound 8 µM) it was 0.206.
Regarding NCI-H2347, the relative viability worked out at 0.867 in assay [1] (first compound 0.08 µM); 0.93 in assay [1] (first compound 0.253 µM); 0.795 in assay [1] (first compound 0.8 µM); 0.859 in assay [1] (first compound 2.53 µM); 1.02 in assay [1] (first compound 8 µM); 0.825 in assay [2] (first compound 0.08 µM). The relative viability was determined as 1.18 in assay [2] (first compound 0.253 µM); 1.01 in assay [2] (first compound 0.8 µM); 0.942 in assay [2] (first compound 2.53 µM); 0.994 in assay [2] (first compound 8 µM); 0.522 in assay [3] (first compound 0.08 µM); 0.605 in assay [3] (first compound 0.253 µM). For the same cell line, the relative viability was found to be 0.582 in assay [3] (first compound 0.8 µM); 0.613 in assay [3] (first compound 2.53 µM); 0.36 in assay [3] (first compound 8 µM); 0.491 in assay [4] (first compound 0.08 µM); 0.514 in assay [4] (first compound 0.253 µM); 0.555 in assay [4] (first compound 0.8 µM). For the same cell line, the results for the relative viability in assay [4] (first compound 2.53 µM) and in assay [4] (first compound 8 µM) were 0.514 and 0.303, respectively.
As for EKVX, the relative viability came to 0.189 in assay [1] (first compound 0.08 µM); 0.167 in assay [1] (first compound 0.253 µM); 0.216 in assay [1] (first compound 2.53 µM); 0.201 in assay [1] (first compound 8 µM); 0.732 in assay [2] (first compound 0.08 µM); 0.764 in assay [2] (first compound 0.253 µM). Further, the relative viability in assay [2] (first compound 2.53 µM) worked out at 0.848; in assay [2] (first compound 8 µM) it was 1.23; in assay [3] (first compound 0.08 µM), 0.367; in assay [3] (first compound 0.253 µM) it was 0.369; in assay [3] (first compound 0.8 µM), 0.401; in assay [3] (first compound 2.53 µM), 0.266. The relative viability in assay [3] (first compound 8 µM) amounted to 0.287; in assay [4] (first compound 0.08 µM) it was 0.396; in assay [4] (first compound 0.253 µM), 0.381; in assay [4] (first compound 0.8 µM) it was 0.392; in assay [4] (first compound 2.53 µM), 0.467; in assay [4] (first compound 8 µM), 0.233.
As for LC-2-ad, the relative viability in assay [1] (first compound 0.08 µM) came out at 0.91; in assay [1] (first compound 0.253 µM), 1.09; in assay [1] (first compound 0.8 µM), 0.627; in assay [1] (first compound 2.53 µM) it was 1.04; in assay [1] (first compound 8 µM), 0.921; in assay [2] (first compound 0.08 µM) it was 0.921. Also, the relative viability is 0.924 in assay [2] (first compound 0.253 µM); 0.839 in assay [2] (first compound 0.8 µM); 1.04 in assay [2] (first compound 2.53 µM); 0.889 in assay [2] (first compound 8 µM); 0.821 in assay [3] (first compound 0.08 µM); 0.782 in assay [3] (first compound 0.253 µM). Besides, the relative viability turned out to be 0.816 in assay [3] (first compound 0.8 µM); 0.732 in assay [3] (first compound 2.53 µM); 0.453 in assay [3] (first compound 8 µM); 0.445 in assay [4] (first compound 0.08 µM); 0.427 in assay [4] (first compound 0.253 µM); 0.548 in assay [4] (first compound 0.8 µM). The relative viability came out at 0.392 in assay [4] (first compound 2.53 µM) and 0.354 in assay [4] (first compound 8 µM).
